Measured values as given in patent US7553969B1, “Substituted phenethylamine derivatives” (Chugai Seiyaku Kabushiki Kaisha, priority 1999, dated 2009).
Where a SMILES comes first, the peptide text is derived from it. [ ]: non-standard residue; d: D form. The star is where a group is joined. ξ: configuration not given here. NMeTyr(3-tBu) = CN[C@@H](Cc1ccc(O)c(C(C)(C)C)c1)C(=O)O; ξNMeTyr(3-tBu) = CNC(Cc1ccc(O)c(C(C)(C)C)c1)C(=O)O; NMePhe(4-F) = CN[C@@H](Cc1ccc(F)cc1)C(=O)O; Phe(4-F) = N[C@@H](Cc1ccc(F)cc1)C(=O)O; NMetBuAla = CN[C@@H](CC(C)(C)C)C(=O)O; ξPhe(4-CN) = N#Cc1ccc(CC(N)C(=O)O)cc1; NMe2Thi = CN[C@@H](Cc1cccs1)C(=O)O; NMeGly(cPr) = CN[C@H](C(=O)O)C1CC1; NMeIle(3ξ) = CCC(C)[C@H](NC)C(=O)O; NMeChg = CN[C@H](C(=O)O)C1CCCCC1; NMeF = CN[C@@H](Cc1ccccc1)C(=O)O; NMePhg = CN[C@H](C(=O)O)c1ccccc1; ξW = NC(Cc1c[nH]c2ccccc12)C(=O)O; NMeL = CN[C@@H](CC(C)C)C(=O)O; NMeNva = CCC[C@H](NC)C(=O)O; NMeV = CN[C@H](C(=O)O)C(C)C; Morpholide = C1CN(*)CCO1

Legend:
[1] = system: specimen of longitudinal muscle in the duodenum extracted from a rabbit (motilin-induced contraction); assay: Action on the motilin-induced contraction of a specimen of longitudinal muscle in the duodenum extracted from a rabbit; settings: Oryctolagus cuniculus, organ bath, Krebs solution 28° C., read-out: Contraction suppressing test, pA2 (converted)
Method: Action on the Contraction of a Specimen of Longitudinal Muscle in the Duodenum Extracted from a Rabbit
The action on the motilin-induced contraction of a specimen of longitudinal muscle in the duodenum extracted from a rabbit was investigated by the following method. A duodenum specimen (5×15 mm) extracted from a slaughtered rabbit was suspended in an organ bath (10 ml) such that the longitudinal muscle would run vertically; the bath was filled with a Krebs solution kept at 28° C. A mixed gas (95% O2 and 5% CO2) was continuously bubbled into the Krebs solution and the contraction of the duodenum specimen was recorded isotonically (with a 1-g load) via an isotonic transducer (ME-3407, ME Commercial, Tokyo, Japan). The degree of contraction was expressed in relative values, with the contraction by acetylcholine at a dose of 10^−4 M being taken as 100%. The activity of the compound was calculated as pA2 value indicating its effect on the dose-dependent muscle contraction by the motilin put into the organ bath.

motilin receptor = molecular target: T1, motilin receptor (Oryctolagus cuniculus, UniProt G1T803); assay: Motilin receptor binding test (125I motilin, rabbit duodenum protein sample); settings: 125I motilin 25 pM, concentration reducing specific binding by 50%
T1 construct: homogenized in 50 mM Tris buffer to prepare a protein sample; from tissue; host or cells: rabbit duodenum homogenate (mucous membrane separated)
T1 sequence (G1T803 1-400): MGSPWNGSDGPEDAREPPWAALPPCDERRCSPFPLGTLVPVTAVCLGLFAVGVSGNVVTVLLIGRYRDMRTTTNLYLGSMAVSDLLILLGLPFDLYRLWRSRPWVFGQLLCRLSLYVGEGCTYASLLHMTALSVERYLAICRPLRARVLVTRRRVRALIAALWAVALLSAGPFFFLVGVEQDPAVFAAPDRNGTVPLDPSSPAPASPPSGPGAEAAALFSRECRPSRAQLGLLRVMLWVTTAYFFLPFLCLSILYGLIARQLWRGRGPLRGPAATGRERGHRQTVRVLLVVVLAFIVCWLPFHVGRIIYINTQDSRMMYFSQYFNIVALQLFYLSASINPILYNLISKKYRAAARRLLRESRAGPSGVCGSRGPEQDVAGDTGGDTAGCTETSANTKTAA
Method: Motilin receptor binding test
A motilin receptor binding test was conducted in the following manner [Vantrappen et al., Regul. Peptides, 15, 143 (1986)]. The duodenum was extracted from a slaughtered rabbit, had the mucous membrane separated and homogenized in 50 mM Tris buffer to prepare a protein sample. The protein sample was incubated together with ^125I motilin 25 pM and thereafter the radioactivity bound to the protein was measured. Specific binding was defined as the difference between the radioactivity in the case of adding a great excess amount of motilin (10^−7 M) and that in the case of no adding. The activity of the compound was expressed by IC50 (in nM), as the concentration sufficient to reduce the specific binding by 50%.

SMILES | Kb [1] [nM] | IC50 (motilin receptor) [nM]
CCN[C@@H](Cc1ccc(F)cc1)C(=O)N(C)[C@H](C(=O)N(CC)[C@@H](Cc1ccc(O)c(C(C)(C)C)c1)C(=O)NCO)C(C)C [Example 129, N-Et-Phe(4-F)-N-Me-Val-N-Et-Tyr(3-tBu)-NHCH2OH] | 3.16 | 4
CC(C)[C@@H](C(=O)N(C)[C@@H](Cc1ccc(O)c(C(C)(C)C)c1)C(=O)NCO)N(C)C(=O)[C@@H](N)Cc1ccc(F)cc1 [Example 132, Phe(4-F)-N-Me-Val-N-Me-Tyr(3-tBu)-NHCH2OH] | 1.26 | 0.86
CC(C)[C@@H](C(=O)N(C)[C@@H](Cc1ccc(O)c(C(C)(C)C)c1)C(=O)N1CCOCC1)N(C)C(=O)[C@@H](N)Cc1ccc(F)cc1 [Example 133, (2S)-2-[(2S)-2-amino-3-(4-fluorophenyl)-N-methylpropanolyamino]-N-((1S)-1-{[3-(tert-butyl)-4-hydroxyphenyl]methyl}-2-morpholin-4-yl-2-oxoethyl)-3-methyl-N-methylbutanamide] (H-[Phe(4-F)]-[NMeV]-[NMeTyr(3-tBu)]-Morpholide) | 6.31 | 1.1
CC(C)[C@@H](C(=O)N(C)[C@@H](Cc1ccc(O)c(C(C)(C)C)c1)C(=O)N1CCN(S(C)(=O)=O)CC1)N(C)C(=O)[C@@H](N)Cc1ccc(F)cc1 [Example 134, (2S)-2-[(2S)-2-amino-3-(4-fluorophenyl)-N-methylpropanolyamino]-N-((1S)-1-{[3-(tert-butyl)-4-hydroxyphenyl]methyl}-2-[4-(methylsulfonyl)piperazinyl]-2-oxoethyl)-3-methyl-N-methylbutanamide] | 5.01 | 1.5
CCOC(=O)CN1CCN(C(=O)[C@H](Cc2ccc(O)c(C(C)(C)C)c2)N(C)C(=O)[C@H](C(C)C)N(C)C(=O)[C@@H](N)Cc2ccc(F)cc2)CC1 [Example 135, ethyl 2-[4-((2S)-2-{(2S)-2-[(2S)-2-amino-3-(4-fluorophenyl)-N-methylpropanolyamino]-3,N-dimethylbutanoylamino}-3-[3-(tert-butyl)-4-hydroxyphenyl]propanoyl)piperazinyl]acetate] | 3.16 | 0.7
CC(C)[C@@H](C(=O)N(C)[C@@H](Cc1ccc(O)c(C(C)(C)C)c1)C(=O)N1CCN(CC(=O)O)CC1)N(C)C(=O)[C@@H](N)Cc1ccc(F)cc1 [Example 136, 2-[4-((2S)-2-{(2S)-2-[(2S)-2-amino-3-(4-fluorophenyl)-N-methylpropanolyamino)-3,N-dimethylbutanoylamino}-3-[3-(tert-butyl)-4-hydroxyphenyl]propanoyl)piperazinyl]acetic acid] | 25.1 | 6.8
CCC[C@@H](C(=O)N(C)[C@@H](Cc1ccc(O)c(C(C)(C)C)c1)C(N)=O)N(C)C(=O)[C@@H](N)Cc1ccc(F)cc1 [Example 140, Phe(4-F)-N-Me-Nva-N-Me-Tyr(3-tBu)-NH2] (H-[Phe(4-F)]-[NMeNva]-[NMeTyr(3-tBu)]-NH2) | 6.31 | 4
CCC(C)[C@@H](C(=O)N(C)[C@@H](Cc1ccc(O)c(C(C)(C)C)c1)C(N)=O)N(C)C(=O)[C@@H](N)Cc1ccc(F)cc1 (stereo partly drawn) [Example 142, Phe(4-F)-N-Me-Ile-N-Me-Tyr(3-tBu)-NH2] (H-[Phe(4-F)]-[NMeIle(3ξ)]-[NMeTyr(3-tBu)]-NH2) | 2.51 | 0.62
CC(C)C[C@@H](C(=O)N(C)[C@@H](Cc1ccc(O)c(C(C)(C)C)c1)C(N)=O)N(C)C(=O)[C@@H](N)Cc1ccc(F)cc1 [Example 144, Phe(4-F)-N-Me-Leu-N-Me-Tyr(3-tBu)-NH2] (H-[Phe(4-F)]-[NMeL]-[NMeTyr(3-tBu)]-NH2) | 3.16 | 2
CN(C(=O)[C@@H](N)Cc1ccc(F)cc1)[C@@H](CC(C)(C)C)C(=O)N(C)[C@@H](Cc1ccc(O)c(C(C)(C)C)c1)C(N)=O [Example 148, Phe(4-F)-N-Me-Leu(γ-Me)-N-Me-Tyr(3-tBu)-NH2] (H-[Phe(4-F)]-[NMetBuAla]-[NMeTyr(3-tBu)]-NH2) | 3.98 | 4.1
CN(C(=O)[C@@H](N)Cc1ccc(F)cc1)[C@H](C(=O)N(C)[C@@H](Cc1ccc(O)c(C(C)(C)C)c1)C(N)=O)C1CCCCC1 [Example 151, Phe(4-F)-N-Me-Chg-N-Me-Tyr(3-tBu)-NH2] (H-[Phe(4-F)]-[NMeChg]-[NMeTyr(3-tBu)]-NH2) | 6.31 | 0.36
CN(C(=O)[C@@H](N)Cc1ccc(F)cc1)[C@@H](Cc1ccccc1)C(=O)N(C)[C@@H](Cc1ccc(O)c(C(C)(C)C)c1)C(N)=O [Example 155, Phe(4-F)-N-Me-Phe-N-Me-Tyr(3-tBu)-NH2] (H-[Phe(4-F)]-[NMeF]-[NMeTyr(3-tBu)]-NH2) | 7.94 | 2.5
CN(C(=O)[C@@H](N)Cc1ccc(F)cc1)[C@@H](Cc1ccc(F)cc1)C(=O)N(C)[C@@H](Cc1ccc(O)c(C(C)(C)C)c1)C(N)=O [Example 157, Phe(4-F)-N-Me-Phe(4-F)-N-Me-Tyr(3-tBu)-NH2] (H-[Phe(4-F)]-[NMePhe(4-F)]-[NMeTyr(3-tBu)]-NH2) | 7.94 | 6.1
CN(C(=O)[C@@H](N)Cc1ccc(F)cc1)[C@@H](Cc1cccs1)C(=O)N(C)[C@@H](Cc1ccc(O)c(C(C)(C)C)c1)C(N)=O [Example 163, Phe(4-F)-N-Me-Ala(β-2-thienyl)-N-Me-Tyr(3-tBu)-NH2] (H-[Phe(4-F)]-[NMe2Thi]-[NMeTyr(3-tBu)]-NH2) | 15.8 | 2.4
CN(C(=O)[C@@H](N)Cc1ccc(F)cc1)[C@H](C(=O)N(C)[C@@H](Cc1ccc(O)c(C(C)(C)C)c1)C(N)=O)C1CC1 [Example 165, Phe(4-F)-N-Me-Ala(β-c-Pr)-N-Me-Tyr(3-tBu)-NH2] (H-[Phe(4-F)]-[NMeGly(cPr)]-[NMeTyr(3-tBu)]-NH2) | 6.31 | 2.8
CN(C(=O)[C@@H](N)Cc1ccc(F)cc1)[C@H](C(=O)N(C)[C@@H](Cc1ccc(O)c(C(C)(C)C)c1)C(N)=O)c1ccccc1 [Example 166, Phe(4-F)-N-Me-Phg-N-Me-Tyr(3-tBu)-NH2] (H-[Phe(4-F)]-[NMePhg]-[NMeTyr(3-tBu)]-NH2) | 0.158 | 1.8
CC(C)[C@@H](C(=O)N(C)C(Cc1ccc(O)c(C(C)(C)C)c1)C(N)=O)N(C)C(=O)C(N)Cc1ccc(C#N)cc1 (stereo partly drawn) [Example 182, Phe(4-CN)-N-Me-Val-N-Me-Tyr(3-tBu)-NH2] (H-[ξPhe(4-CN)]-[NMeV]-[ξNMeTyr(3-tBu)]-NH2) | 3.16 | 2.3
CC(C)[C@@H](C(=O)N(C)C(Cc1ccc(O)c(C(C)(C)C)c1)C(N)=O)N(C)C(=O)C(N)Cc1c[nH]c2ccccc12 (stereo partly drawn) [Example 183, Trp-N-Me-Val-N-Me-Tyr(3-tBu)-NH2] (H-[ξW]-[NMeV]-[ξNMeTyr(3-tBu)]-NH2) | 0.316 | 0.57
